Results as given in patent publication US20040198716A1, “Cysteine protease inhimbitors” (priority 2001, published 2004).

How the values were obtained:
α-chymotrypsin = α-chymotrypsin (Bos taurus, UniProt P00766, DEL14-15/DEL147-148); experiment: Cross-reactivity protease inhibition assay (QuantiCleave), chymotrypsin; type: biochemical; conditions: ratio Abs450nm with inhibitor / without inhibitor; 100 μM compound
Protocol: (§1) To evaluate whether inhibition was specific to caspase-3 or applicable to other cysteine proteases or other proteases, inhibitor molecules were assayed for their capacity to inhibit additional non-caspase proteases. Three proteases, TPCK-trypsin, α-chymotrypsin and papain, were used to test for protease inhibition cross-reactivity. Protease inhibition assays were performed in 96-well flat-bottomed micro-titer plates with the QuantiCleave™ protease assay kit (Pierce, Rockford, Ill.) according to the manufacturer's instructions. Briefly, the assay conditions contained 100 μM compound, 2 mg/mL of succinylated-casein and 0.15 mg/mL of the protease. The assay incubated in a final volume of 150 μLs 0.05 M sodium borate pH 8.5 buffer (NaB-buffer) for 20 minutes at 25° C. After the protease reaction, 50 μLs of a trinitrobenzenesulfonic acid (TNBSA) solution (1:15, TNBSA:NaB-buffer) was added to each reaction and further incubated for 20 minutes at 25° C. Absorbance values at 450 nm were read in an Emax (Molecular Devices, Sunnyvale, Calif.) micro plate reader. Appropriate controls were performed, including known inhibitors (soybean trypsin inhibitor, aminoethyl-benzenesulfonic acid and leupeptin) for the proteases.
(§2) Relative activities in the presence of inhibitor were calculated by taking the ratio of absorbance for a reaction containing inhibitor to the absorbance for a reaction without inhibitor. Significant inhibition was determined by testing the null hypothesis of equivalence between the mean absorbance of reactions containing inhibitor and the mean absorbance of reactions without inhibitor (2 tailed t-test, 2 df).
(§3) The results are given in Table V in terms of cross-reactivities, relative activity and significant difference of 100 μM protease inhibitors on the proteases trypsin, chymotrypsin and papain.

papain = target: T1, papain (Carica papaya, UniProt P00784); experiment: Cross-reactivity protease inhibition assay (QuantiCleave), papain; type: biochemical; conditions: ratio Abs450nm with inhibitor / without inhibitor; 100 μM compound
T1 sequence (P00784 134-345): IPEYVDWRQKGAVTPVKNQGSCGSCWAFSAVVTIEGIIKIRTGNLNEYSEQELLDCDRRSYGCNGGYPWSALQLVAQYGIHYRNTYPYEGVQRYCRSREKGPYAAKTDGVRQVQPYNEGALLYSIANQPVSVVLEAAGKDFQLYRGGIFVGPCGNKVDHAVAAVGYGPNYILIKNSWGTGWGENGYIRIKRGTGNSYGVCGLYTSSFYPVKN
Protocol: as §1, §2, §3

[1] = target: T2, human recombinant caspase-3 (Homo sapiens, UniProt P42574); experiment: In vitro high throughput caspase-3 assay; type: biochemical; conditions: for Percent Activity: percentage of the positive control, 20-250 μM test compound, lower = better inhibition, negative = better than control caspase inhibitor; for Caspase-3 Activity: relative activity as a fraction, values match Table II percent activity divided by 100; for Ki: calculated from IC50 according to Equation 1, read-out: Ki(app); for IC50: fixed substrate concentration of 55 μM, inhibitors 75 to 0.067 μM in duplicate
T2 construct: purchased Sigma
T2 sequence (P42574 29-175 limits assumed): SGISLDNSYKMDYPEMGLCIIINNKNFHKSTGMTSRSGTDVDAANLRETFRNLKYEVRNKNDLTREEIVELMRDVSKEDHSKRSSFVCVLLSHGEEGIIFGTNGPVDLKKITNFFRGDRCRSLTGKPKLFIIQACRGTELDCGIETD
T2 sequence (P42574 176-277 limits assumed): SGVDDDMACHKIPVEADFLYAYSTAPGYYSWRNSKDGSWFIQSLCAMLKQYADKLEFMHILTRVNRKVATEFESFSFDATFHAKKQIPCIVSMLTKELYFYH
Protocol: Purified Human recombinant caspase-3, fluorescence labeled substrate (Acetyl-Asp-Glu-Val-Asp-7-amino-4-trifluoromethyl coumarin), and known inhibitor (Z-Asp-Glu-Val-Asp-fluoromethyl ketone) can be purchased from Sigma Chemical Co. (St. Louis, Mo.). The enzyme reactions are carried out at room temperature in 10 mM PIPES pH=7.4, 2 mM EDTA, 0.1% CHAPS, 5 mM DTT reaction buffer. Each well on the 96 well plate contains the above reaction buffer plus 55 μM fluorescence labeled substrate, 0.125 μg caspase-3, and 20-250 μM test compound. Positive and negative controls are present on each assay plate. A standard curve is generated using 7-amino-4-trifluoromethyl coumarin in the concentration range from 0.15 μM to 5.0 μM. The reactions are preferably read every 0.5 hours using a fluorescence microtiter plate reader set for 390 nm excitation and 538 nm emission for the first 4 hours after which the plates are left at room temperature overnight. One reading is taken the next morning as a final measurement.
To determine the caspase inhibitory activity of these compounds, the in vitro high throughput caspase-3 assay presented herein was utilized. Purified human recombinant caspase-3, fluorescence labeled substrate (Acetyl-Asp-Glu-Val-Asp-7-amino-4-trifluoromethyl coumarin), and known inhibitor (Z-Asp-Glu-Val-Asp-fluoromethyl ketone) were purchased from Sigma. The enzyme reactions were carried out at room temperature in 10 mM PIPES pH=7.4, 2 mM EDTA, 0.1% CHAPS, 5 mM DTT reaction buffer. Each well on the 96 well plate contained the above reaction buffer plus 55 μM fluorescence labeled substrate, 0.125 μg caspase-3, and 20-250 μM test compound. Positive and negative controls were present on each assay plate. A standard curve was generated using 7-amino-4-trifluoromethyl coumarin in the concentration range from 0.15 μM to 5.0 μM. The reactions were read every 0.5 hours using a fluorescence microtiter plate reader set for 390 nm excitation and 538 nm emission for the first 4 hours after which the plates were left at room temperature overnight. One reading was taken the next morning as a final measurement.
Ki determinations were carried out using the above assay system. […] Ki(app) was calculated according to Equation 1: [formula]
The concentration of inhibitors ranged from 75 to 0.067 μM with each inhibitor concentration assayed in duplicate. The Km for the substrate was determined from a standard Lineweaver-Burke plot.

TPCK-trypsin = target: T3, TPCK-trypsin (Bos taurus, UniProt P00760); experiment: Cross-reactivity protease inhibition assay (QuantiCleave), trypsin; type: biochemical; conditions: ratio Abs450nm with inhibitor / without inhibitor; 100 μM compound
T3 sequence (P00760 24-246): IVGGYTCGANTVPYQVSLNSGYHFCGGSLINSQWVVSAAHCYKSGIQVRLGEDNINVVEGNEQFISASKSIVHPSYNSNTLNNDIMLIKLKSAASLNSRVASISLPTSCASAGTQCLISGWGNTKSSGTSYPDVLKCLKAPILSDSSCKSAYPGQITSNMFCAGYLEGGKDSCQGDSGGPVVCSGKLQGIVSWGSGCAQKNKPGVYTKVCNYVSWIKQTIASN
Protocol: as §1, §2, §3

[2] = target: T4, Human Rhinovirus serotype 1A 3C Protease (Human rhinovirus 1A, UniProt P23008); experiment: 3C Protease Biochemical Assay (FRET); conditions: 30° C., 2-6uM substrate, 416 nM 3CP
T4 construct: used to clone the 3C Protease into the expression vector pET16-b; made in house; host or cells: E. coli BL21-DE3-pLys-S
Protocol: Human Rhinovirus serotype 1A (ATCC) was used to clone the 3C Protease into the expression vector pET16-b and transformed for production into the E. coli strain BL21-DE3-pLys-S. 3C Protease expression was induced with 1 mM IPTG at 25° C. and purified from the soluble protein extract by chromatography on a SourceQ (Pharmacia) followed by gel filtration. HRV 3CP activity was measured by fluorescence resonance energy transfer using a dimodified decapeptide substrate MOC-[…]DNP-NH2 (7-methoxy coumarin-4-acetic acid fluorochrome and dinitrophenol quencher) with a Km value of 16.8 μM. Inhibition was measured as a change in initial velocity (V0) as a function of inhibitor (I) concentration and substrate (S) concentration. […] Fluorescence was monitored by excitation at 328 nm and emission at 393 nm with 10 nm cutoffs. Data were analyzed with the nonlinear regression analysis program EnzFitter (BioSoft) with the equation:
Ki=(I/((VmaxxS)/V0)/Ks)−I−S
Substrate concentrations used were lower than the Km of the substrate (16.8 uM) so no corrections for an S/Km term were used.

HeLa-H1 cells = experiment: Toxicity in uninfected cells of the cell culture 3C-protease assay; type: cell-based; set-up: key to TC50: —: the hyphens indicate no value was able to be calculated (i.e. the drug response did not cross the 50% point); conditions: compound-treated uninfected HeLa-H1 cells, 48 hours, alamarBlue; dilution series 250-0.98 μM; several values per compound = repeat determinations
Protocol: In this assay, 96 well micro titer plates were seeded with 10^4 HeLa-H1 (ATCC) cells per well and incubated in DMEM+10% FBS (Gibco) for 24 hours at 37° C., saturated humidity and 5% CO2. Human Rhinovirus serotype 1A (ATCC) were titered to produce a 30% cell kill and added to some wells of a 96 well plate, other wells were mock infected with media only, followed by incubation at 33° C., saturated humidity and 5% CO2 for 1 hour. Compounds were dissolved in DMSO, diluted in DMEM and added in a 9 step 2-fold dilution series (250, 125, 62.5, 31.25, 15.63, 7.81, 3.91, 1.95, 0.98 μM) 1 hour after virus treatment. Plates were incubated for 48 hours at 33° C., saturated humidity and 5% CO2 in a final volume of 100 μL FBS free DMEM. Cell survival was measured by the addition of 10 μL of alamarBlue™ (BioSource), incubation at 33° C. for 45 minutes and reading in a fluorescence plate reader, excitation: 544 nm, emission: 590 nm. The inhibitory concentration 50% (IC50) was calculated as the concentration of compound that increased the percentage fluorescence in the compound-treated virus-infected cells to 50% of that produced by compound-free, uninfected cells. The toxicity concentration 50% (TC50) was calculated as the concentration of compound that decreased the percentage fluorescence in the compound-treated, uninfected cells to 50% of the compound-free, uninfected cells. The therapeutic index (Ti) was calculated by dividing the […].

T4 sequence (P23008 1515-1697): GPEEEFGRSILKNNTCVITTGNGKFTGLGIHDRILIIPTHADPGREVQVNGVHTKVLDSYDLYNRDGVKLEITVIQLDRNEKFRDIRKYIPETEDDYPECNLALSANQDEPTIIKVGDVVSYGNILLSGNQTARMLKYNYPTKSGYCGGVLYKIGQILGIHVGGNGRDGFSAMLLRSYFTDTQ

NCCc1ccc(S(=O)(=O)F)cc1 [AEBSF, reference compound]
α-Chymotrypsin Activity (α-chymotrypsin): 0.466

CC(=O)N[C@@H](CC(C)C)C(=O)N[C@@H](CC(C)C)C(=O)N[C@H](C=O)CCCNC(=N)N [Leupeptin, leupeptin, reference compound]
Papain Activity (papain): 0.095

O=c1cc(-c2ccccc2)oc2cc(O)cc(O)c12 [cpi0124]
Percent Activity [1]: 51.49%
Caspase-3 Activity [1]: 0.515
TPCK-Trypsin Activity (TPCK-trypsin): 1.075
α-Chymotrypsin Activity (α-chymotrypsin): 1.029
Papain Activity (papain): 0.445

O=C1C=CC(=O)c2ccccc21 [cpi0126]
Ki [1]: 0.642 µM
IC50 [1]: 4.04 µM
Percent Activity [1]: −0.30%
Ki [2]: 515 µM

CC1=CC(=O)c2ccccc2C1=O [cpi0127]
Ki [1]: 0.694 µM
IC50 [1]: 4.37 µM
Percent Activity [1]: 1.32%
Ki [2]: 242 µM

O=C1C=CC(=O)c2c(O)ccc(O)c21 [cpi0131]
Percent Activity [1]: −1.78%
Caspase-3 Activity [1]: −0.0178
TPCK-Trypsin Activity (TPCK-trypsin): 0.819
α-Chymotrypsin Activity (α-chymotrypsin): 0.915
Papain Activity (papain): 0.505
Ki [2]: 307 µM

CC(C)=CCC1=C(O)C(=O)c2ccccc2C1=O [cpi0133]
Percent Activity [1]: 48.29%
Caspase-3 Activity [1]: 0.483
TPCK-Trypsin Activity (TPCK-trypsin): 1.196
α-Chymotrypsin Activity (α-chymotrypsin): 1.081
Papain Activity (papain): 0.897

COC(=O)CCNc1ccc(O)c2c1C(=O)c1ccccc1C2=O [cpi0136.NS131731]
TC50 (HeLa-H1 cells): —, and —

O=C1C(Br)=C(Br)C(=O)c2c1ccc(Br)c2O [cpi0139]
Ki [1]: 69.8 µM
IC50 [1]: 440 µM
Ki [2]: 154 µM

O=C1C(Br)=CC(=O)c2c(O)cccc21 [cpi0141]
Ki [1]: 4.91 µM
IC50 [1]: 30.9 µM
Ki [2]: 73 µM

Cc1cccc(Oc2ccc3noc4c3c2C(=O)c2ccccc2-4)c1 [cpi0156.0055]
Percent Activity [1]: −1.448%

O=C1c2ccccc2-c2onc3ccc(Cl)c1c23 [cpi0156.0056]
Percent Activity [1]: 1.882%

COc1ccc2c(c1OC)C(=O)OC2CC(=O)c1ccc(O)cc1O (stereo not shown) [cpi0156.D1]
Percent Activity [1]: 24.72%

O=C(NN=Cc1ccccc1)C12CC3CC(C1)CC(C(=O)NN=Cc1ccccc1)(C3)C2 [cpi0157.B2]
Ki [1]: 52.8 µM
Percent Activity [1]: 50.76%

Cc1cc(C(=O)NN)c2cc(Br)ccc2n1 [cpi0157.C3]
Ki [1]: 131 µM
IC50 [1]: 825 µM
Percent Activity [1]: 36.41%

N#CC1=C(N)SC(N)=C(C#N)C1c1cccc(F)c1 [cpi0157.F9]
Ki [1]: 39.9 µM
IC50 [1]: 251 µM
Percent Activity [1]: 31.50%

N#CC1=C(N)NC(SCc2ccccc2)=C(C#N)C12CCCC2 [cpi0157.F10]
Ki [1]: 14.5 µM
IC50 [1]: 91 µM
Percent Activity [1]: 19.48%

COc1cc(NC2OC(CO)C(O)C(O)C2O)ccc1C (stereo not shown) [cpi0159.C3]
Percent Activity [1]: 33.47%

O=C(O)C1Cc2c([nH]c3ccccc23)C(c2ccncc2)N1 (stereo not shown) [cpi0190]
Ki [1]: 0.0054 µM
IC50 [1]: 0.03 µM

COc1cccc2occc(=O)c12 [cpi0409]
TC50 (HeLa-H1 cells): —, and —

B1: STI: Soybean Trypsin Inhibitor, known inhibitor control (protein, UniProt P01070 25-205, looked up)
Trypsin inhibitor A: DFVLDNEGNPLENGGTYYILSDITAFGGIRAAPTGNERCPLTVVQSRNELDKGIGTIISSPYRIRFIAEGHPLSLKFDSFAVIMLCVGIPTEWSVVEDLPEGPAVKIGENKDAMDGWFRLERVSDDEFNNYKLVFCPQQAEDDKCGDIGISIDHDDGTRRLVVSKNKPLVVQFQKLDKESL
TPCK-Trypsin Activity (TPCK-trypsin): 0.017
